These results are taken from patent EP4035684A1, “AFFINITY ILLUDOFULVENE CONJUGATES” (AF Chemical LLC, priority 2019, dated 2022).

Series [1] has as its system HT29 (ER Negative). Briefly: Cytotoxicity, 2 hour exposure, cells not expressing the estrogen receptor. Conditions: Homo sapiens, HT-29, N=3, mean ± SD. The series is classed as cell-based. An excerpt: (§1) MCF7 over express estrogen alpha-receptors.
(§2) MCF7 cells over express estrogen alpha-receptors.
(§3) The foregoing description of embodiments of the methods, systems, and components of the present invention has been provided for the purposes of illustration and description. It is not intended to be exhaustive or to limit the invention to the precise forms disclosed. Many modifications and variations will be apparent to one of ordinary skill in the relevant arts. For example, steps performed in the embodiments of the invention disclosed can be performed in alternate orders, certain steps can be omitted, and additional steps can be added. The embodiments were chosen and described in order to best explain the principles of the invention and its practical application, thereby enabling others skilled in the art to understand the invention for various embodiments and with various modifications that are suited to the particular used contemplated. Other embodiments are possible and are covered by the invention. Such embodiments will be apparent to persons skilled in the relevant art(s) based on the teachings contained herein. The breadth and scope of the present invention should not be limited by any of the above-described exemplary embodiments, but should be defined only in accordance with the following claims and their equivalents.

The test system of series [2] is MCF7 (ER positive). Briefly: Cytotoxicity, 2 hour exposure, cells expressing the estrogen receptor. The series is classed as cell-based. Conditions: Homo sapiens, N=3, mean ± SD.
Source text: as §1, §2, §3

Series [3] has as its system NCI 60 cell line panel. Conditions: cited from earlier work; for Mean TGI cytostatic / GI50: mean over NCI DTP 60 cell lines; for GI50: read-out: Mean GI50 inhibition.
Series [4] deals with Prostate PC3 (negative PSA). The experiment in a line: Activity of PSA cleavable analogs against PSA negative cell line, 48 hour exposure. The class given is cell-based. The following applies: N=3, mean ± SD.
Series [5] concerns Prostate DuPro (trace PSA). Briefly: Activity of PSA cleavable analogs against trace PSA cell line, 48 hour exposure. The class given is cell-based. The following applies: Homo sapiens, N=3, mean ± SD.
The subject of series [6] is Prostate LnCAP (positive PSA). Briefly: Activity of PSA cleavable analogs against PSA positive cell line, 48 hour exposure. The class given is cell-based. Conditions: Homo sapiens, N=3, mean ± SD.
Series [7] deals with Prostate PC3 (negative PSA). The experiment in a line: Activity of PSA cleavable analogs against PSA negative cell line, 48 hour exposure. The class given is cell-based. The following applies: N=3, mean ± SD. This is another data set of the same source.
Series [8] concerns Prostate DuPro (trace PSA). The experiment in a line: Activity of PSA cleavable analogs against trace PSA cell line, 48 hour exposure. The series is classed as cell-based. The following applies: N=3, mean ± SD.
Series [9] has as its system Prostate LnCAP (positive PSA). The experiment in a line: Activity of PSA cleavable analogs against PSA positive cell line, 48 hour exposure. The class given is cell-based. The following applies: N=3, mean ± SD.
Series [10] concerns MV522 cell line. The experiment in a line: cells. The class given is cell-based. The following applies: read-out: Mean IC50 value (nM) ± SD, N=3 unless otherwise indicated; MV522 Target Cell Line; 2 hr exposure; MV522 target cell line, 2 hr exposure; mean ± SD, N=3 unless otherwise indicated.
For series [11], the system named is 8392B cell line. Briefly: Two hour toxicity: inhibition of DNA synthesis activity, nontarget cell line. Conditions: read-out: Mean IC50 value (nM) ± SD, N=3 unless otherwise indicated; 8392B Nontarget Cell Line; 2 hr exposure; 8392B nontarget cell line, 2 hr exposure; mean ± SD, N=3 unless otherwise indicated. The class given is cell-based.
In series [12] the test system is MV522 cell line. Briefly: 48 hour exposure, growth or viability by Trypan Blue Exclusion assay, target cell line. The series is classed as cell-based. The following applies: read-out: Mean IC50 value (nM) ± SD, N=3 unless otherwise indicated.
Series [13] relates to 8392B cell line. The experiment in a line: cells. The series is classed as cell-based. Conditions: read-out: Mean IC50 value (nM) ± SD, N=3 unless otherwise indicated, 8392B Nontarget Cell Line, 48 hr exposure, 8392B nontarget cell line, mean ± SD, N=3 unless otherwise indicated.

SMILES strings stand for the structures. *1 amine or outer side, *2 acyl side, *3 side chain or, on linkers, in order; H or OH if unused. Where a SMILES comes first, the peptide text is derived from it. The star is where a group is joined. X2 = CC1=C(CCCN*)C2=C(C)C3(CC3)[C@@](C)(O)C(=O)C2=C1; Morpholide = C1CN(*)CCO1; CO = O=C([*:1])[*:2]

`CC1=C2C(=CC(C)(C)[C@@H]2O)C(=O)[C@](C)(O)C12CC2` [Illudin M] registered an IC50 in series [1] of 520 ± 100 nM. The IC50 in series [2] turned out to be 480 ± 130 nM. The CC50 in [3] (human, nci 60 cell lines) is 291 nM. In series [3], the “Mean TGI cytostatic” value was 20 nM and the GI50 is 3 nM.
On to `CC1=C2C(=C[C@@](C)(CO)[C@@H]2O)C(=O)[C@](C)(O)C12CC2` [Illudin S], for which the concentration for half-maximal inhibition (IC50) in series [4] came out at 16 ± 5 nM; in series [5] it was 11 ± 3 nM; in series [6], 15 ± 3 nM. For the same compound, the “Mean TGI cytostatic” value in [3] was 64 nM. Also, the GI50 in [3] is 10 nM.
With `CC1=C(CCCNC(=O)[C@H](CC(C)C)NC(=O)[C@H](CCC(N)=O)NC(=O)[C@H](CC(C)C)NC(=O)[C@H](CCCCN)NC(=O)[C@H](CO)NC(=O)[C@H](CO)NC(=O)[C@H](Cc2c[nH]cn2)NC(=O)N2CCOCC2)C2=C(C)C3(CC3)[C@@](C)(O)C(=O)C2=C1` [compound 221] ({Morpholide-CO}-HSSKLQL-X2), the IC50 is over 21000 nM in series [7]; 13000 nM in series [8]; 800 ± 100 nM in series [9]; over 21000 nM in [10]; over 21000 nM in [11]; 2500 nM in [12]. Further, the IC50 in [13] is over 21000 nM.
